Results reported in ChEMBL document CHEMBL1201862, “PubChem BioAssay data set” (2004).
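Each compound was tested at five concentrations against cells in 96-well plates for 48 hours. Abbreviation: GI50, concentration required for 50% inhibition of growth.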 Activity calls are given as the source filed them. Rule as the data show it: active = GI50 up to about 1.1 µM and inactive = higher.

Legend:
Assay in all cases: growth of human tumour cells (NCI), 48 h
ACHN = test system: ACHN
CAKI-1 = test system: CAKI-1
CCRF-CEM = test system: CCRF-CEM
COLO 205 = test system: COLO 205
EKVX = test system: EKVX
HCC 2998 = test system: HCC 2998
HCT-15 = test system: HCT-15
HL-60 = test system: HL-60
Hs-578T = test system: Hs-578T
K562 = test system: K562
MCF7 = test system: MCF7
MDA-MB-435 = test system: MDA-MB-435
NCI-H23 = test system: NCI-H23
NCI/ADR-RES = test system: NCI/ADR-RES
OVCAR-3 = test system: OVCAR-3
RXF 393 = test system: RXF 393
SK-MEL-2 = test system: SK-MEL-2
SW-620 = test system: SW-620
UACC-62 = test system: UACC-62
UO-31 = test system: UO-31

`O=C1/C(=C/c2ccc(Cl)cc2)N=C(c2ccccc2)N1c1nc2ccc(Sc3ccccc3)cc2[nH]1` was tested, and the GI50 (ACHN) was 36.4 µM (inactive), the GI50 (CAKI-1) was 30.1 µM (inactive) and the GI50 (CCRF-CEM) was 22.4 µM (inactive). For the same molecule, the GI50 (COLO 205) was 19.7 µM (inactive), the GI50 (EKVX) was 36.3 µM (inactive) and the GI50 (HCC 2998) was 17.4 µM (inactive). For the same molecule, the GI50 (HCT-15) was 29.2 µM, the GI50 (HL-60) was 15.8 µM (inactive) and the GI50 (Hs-578T) was 29.2 µM (inactive). For the same molecule, the GI50 (K562) was 17.5 µM (inactive), the GI50 (MCF7) was 22.6 µM (inactive) and the GI50 (MDA-MB-435) was 10.2 µM (inactive). For the same molecule, the GI50 (NCI-H23) was 30.1 µM (inactive), the GI50 (NCI/ADR-RES) was 23.6 µM (inactive) and the GI50 (OVCAR-3) was 35.8 µM (inactive). The GI50 (RXF 393) was 26.3 µM (inactive), the GI50 (SK-MEL-2) was 15.6 µM (inactive) and the GI50 (SW-620) was 23.7 µM (inactive). The GI50 (UACC-62) was 14 µM (inactive) and the GI50 (UO-31) was 34.8 µM (inactive).
